In brackets after ≈: the same amount, converted by molar mass. Entries after “also recorded” stand apart in the source; their conditions may differ. Where two headings read alike, the source gives them in different places.
Experiments:
[1] = Thin film autoxidation of arachidonic acid with compounds 16-19 (HPLC)
Source text: Subsequently, the autoxidation of compounds 16-19 and their effects on the autoxidation of arachidonic acid were investigated. In these experiments, a thin film assay method was employed. For each reaction, arachidonic acid was mixed with one of the synthetic compounds 16, 17, 18 or 19 at 1:1 ratio with or without the radical initiator, azobisisobutyronitrile (AIBN). A reverse phase HPLC method was used to simultaneously measure the relative amounts of arachidonic acid and the synthetic compounds 16, 17, 18 or 19 recovered following 60 or 70 hours or 7 days of thin film autoxidation.

[2] = Petri-dish thin film autoxidation of arachidonic acid with thia fatty acids and sulfides (HPLC)
Procedure, shortened: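 Arachidonic acid mixed with each sulfur compound at different ratios, lauric acid as internal standard, cast as thin films on 80 mm glass Petri-dishes. Dishes kept under oxygen in a dark desiccator; residual compounds quantified after 1, 2, 3, 5 and 7 days by reverse-phase HPLC with refractive index detection.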

[3] = Stability of thia fatty acids and sulfides as thin film under oxygen (1H NMR); assay type: physicochemical; details: darkness, up to six weeks
Description: Compounds 110 (4.3 mg) and 106 (6 mg) were each dissolved in 5 ml of dichloromethane and added into 250 ml one-neck flasks. Compound 18 (20 mg) and compounds 19, 108, 109 and 111-112 (14-20 mg) were each dissolved in 10 ml of dichloromethane and added into 500 ml flasks. The solvent dichloromethane was then evaporated with continuous rotation of the flasks, allowing the compounds to form thin films. The flasks were flushed with oxygen, sealed and kept in darkness. The compounds in the flasks were redissolved in chloroform-d and analysed by ^1H NMR every two weeks for up to six weeks.
To examine possible reasons for this lack of antioxidative activity, the chemical stability of compounds 18 and 109 in the absence of arachidonic acid was investigated. For comparison, the stability of compounds 19, 106, 108 and 110-112 was also examined. Each compound was studied as a thin film under oxygen as described above. Samples were removed and analysed by ^1H NMR spectroscopy regularly for up to six weeks. […] This is consistent with compound 109 decomposing in the presence of arachidonic acid, but not alone.

15-LO = molecular target: T1, 15-LO (Glycine max, UniProt P08170); assay: Effect on 15-LO catalysed oxidation of arachidonic acid; assay type: biochemical, soybean
T1 construct: purchased Sigma Chemical Company
T1 sequence (P08170 1-839): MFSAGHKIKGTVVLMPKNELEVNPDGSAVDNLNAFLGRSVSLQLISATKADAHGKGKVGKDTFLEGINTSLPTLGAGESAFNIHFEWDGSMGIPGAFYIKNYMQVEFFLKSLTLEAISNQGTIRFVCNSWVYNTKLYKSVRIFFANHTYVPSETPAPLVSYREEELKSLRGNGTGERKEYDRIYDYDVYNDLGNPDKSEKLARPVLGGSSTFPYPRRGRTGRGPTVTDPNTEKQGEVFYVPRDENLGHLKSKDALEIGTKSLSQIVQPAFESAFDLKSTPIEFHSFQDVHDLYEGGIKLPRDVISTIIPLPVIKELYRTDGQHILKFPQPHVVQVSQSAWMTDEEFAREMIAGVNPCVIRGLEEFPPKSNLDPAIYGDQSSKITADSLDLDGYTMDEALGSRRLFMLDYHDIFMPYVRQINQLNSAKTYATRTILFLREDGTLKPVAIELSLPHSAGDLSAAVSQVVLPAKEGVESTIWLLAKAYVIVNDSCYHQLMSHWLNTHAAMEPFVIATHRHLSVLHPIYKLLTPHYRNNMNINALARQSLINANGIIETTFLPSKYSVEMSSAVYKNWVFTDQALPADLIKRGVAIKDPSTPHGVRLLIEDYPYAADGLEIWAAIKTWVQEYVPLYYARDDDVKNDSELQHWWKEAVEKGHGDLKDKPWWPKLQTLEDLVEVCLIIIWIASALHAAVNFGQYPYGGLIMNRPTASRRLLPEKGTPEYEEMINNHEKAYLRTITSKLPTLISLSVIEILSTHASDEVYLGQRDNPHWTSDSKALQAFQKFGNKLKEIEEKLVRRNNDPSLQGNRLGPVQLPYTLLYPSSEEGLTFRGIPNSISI

[4] = tested on: Plasmodium falciparum isolates 3D7, FC27, K+; assay: Radiometric (3H-hypoxanthine) assay on asexual blood stages of P. falciparum; assay type: cell-based; details: for EC50: Plasmodium falciparum, read-out: EC50 against P. falciparum
Description: Using the radiometric assay^(36), the effects of the Lx compounds were examined for antimalarial activity. The Plasmodium falciparum isolates used were 3D7, FC27, K^1 and K^+. These were maintained in human blood group O^+ erythrocytes essentially as described previously using RPM-1640 (HEPES modification) supplemented with 0.25% D-glucose, 0.2% Tess buffer (Sigma Chemical Co, Lt Louis, Mo.) and 10% heat inactivated (56° C., 20 min) human blood group AB serum. Cultures were maintained in tissue culture flasks (Corning, N.Y.) at 37° C. under an atmosphere of 1% 2, 5% CO2 in N2. P. falciparum cultures containing approximately 3.0:% parasitaemia were adjusted to 1×10^8 erythrocytes/ml. To 50 μl of the parasite-erythrocyte culture (5×10^6 erythrocytes) in wells of 96-well microdilution plates wvas added 50 μl of the designated concentration of fatty acid or equivalent amounts of solutions or media. The treated cultures were incubated at 37° C. for 4 h and then pulsed with 50 μl (2.5 μCi) of ^3H-hypoxanthine. After a further 18 h incubation the parasites-erythrocytes were harvested onto glass fibre filter papers using a cell harvester. The amount of radioactivity incorporated was measured in a β-counter. The results have been expressed as % inhibition of parasite growth i.e. the dpm in the fatty acid diluent−dpm in the fatty acid treated cultures/dpm in diluent×100.

Red blood cells = assay: Incorporation of Lx3 into normal red blood cells; assay type: cell-based; details: 200 μg Lx3, 37° C., 4 h
Description: Red blood cells or parasitised red blood cells (K+ strain, 9.25% parasitaenia) (5×10^8 cells) were incubated with 200 μg of Lx3 in 10 mls of HBSS at 37° C. for 4 h. The incubate was centrifuged (3,000 rpm for 10 min) and the medium aspirated. The cell pellet was washed 3 times with 5 ml of HBSS with centrifugation. Lipids were extracted from the cell pellet and neutral lipids, phospholipids and unesterffied Lx3 were resolved by thin-layer chromatography. The neutral lipid and phospholipid samples were transesterified to release any bound Lx3. The amount of Lx3 associated with the unesterifield, neutral lipid and phospholipid fractions was quantitated by gas-liquid chromatography using nonadecanoic acid (nonadecylic acid (19:0)) methyl ester (48 nmol) as a reference standard. For definitive identification of Lx3 and possible products (elongation, de-saturation, shorter-chain products), a combined gas-liquid chromatography-mass spectrometry (GC-MS) technique was employed. FIG. 6 is the GC-MS (expanded view) of Lx3 isolated from parasitised RBC. The mass spectrum of each peak unambiguously identifies 19:0 and Lx3 (19:3(n-6)-N02) respectively. […] No Lx3 was esterified in neutral lipids and phospholipids (Table 4). It is important to note that parasitised red blood cells took up approximately 6 times more Lx3 than non-parasitised cells. […]

[5] = tested on: parasitised red blood cells (K+ strain); assay: Incorporation of Lx3 into parasitised red blood cells; assay type: cell-based, P. falciparum
Description: Red blood cells or parasitised red blood cells (K+ strain, 9.25% parasitaenia) (5×10^8 cells) were incubated with 200 μg of Lx3 in 10 mls of HBSS at 37° C. for 4 h. The incubate was centrifuged (3,000 rpm for 10 min) and the medium aspirated. The cell pellet was washed 3 times with 5 ml of HBSS with centrifugation. Lipids were extracted from the cell pellet and neutral lipids, phospholipids and unesterffied Lx3 were resolved by thin-layer chromatography. The neutral lipid and phospholipid samples were transesterified to release any bound Lx3. The amount of Lx3 associated with the unesterifield, neutral lipid and phospholipid fractions was quantitated by gas-liquid chromatography using nonadecanoic acid (nonadecylic acid (19:0)) methyl ester (48 nmol) as a reference standard. For definitive identification of Lx3 and possible products (elongation, de-saturation, shorter-chain products), a combined gas-liquid chromatography-mass spectrometry (GC-MS) technique was employed. FIG. 6 is the GC-MS (expanded view) of Lx3 isolated from parasitised RBC. The mass spectrum of each peak unambiguously identifies 19:0 and Lx3 (19:3(n-6)-N02) respectively. […] No Lx3 was esterified in neutral lipids and phospholipids (Table 4). It is important to note that parasitised red blood cells took up approximately 6 times more Lx3 than non-parasitised cells. […] The lack of derivatisation or incorporation of Lx3 into neutral lipids and phospholipids is almost certainly due to Lx3 not having a carboxylic acid group which is mandatory for the conversion of a fatty acid to its coenzyme A ester.

P. berghei = assay type: in vivo; design: Parasitaemia: unit not given here; details: for Parasitaemia: 40 mg/kg from one day prior to infection, twice a day
Description: In other sets of experiments, the effects of Lx3 were examined in vivo in mice infected with P. berghei. FIG. 10 illustrates the effect of Lx3 on the level of P. berghei parasitaemia in the mice. Results are the means ±SEM of five mice per group. Mice were infected intraperitoneally with the parasite and when an appropriate parasitaemia was reached they were treated intravenously with 40 mg/kg weight of MP3.
Mice were treated at one day prior to infection with 2 doses of 40 mg/kg body weight and then another dose 60 min prior to infection (0 time) on the following day. The parasitaemia was checked 4 h later and at the times stipulated in the Table. The animals were treated with either DPC or Lx3 twice a day 30 min after taking a parasitaemia reading. The results are presented as mean ±SEM of parasitaelnia of 4 mice per group.

TNF-α = TNF-α production by human peripheral blood leukocytes; assay type: cell-based; details: Leukocyte, stimulus S. aureus, read-out: % Inhibition (compared to control) of TNF-α
Description: (§1) The effects of the nitroalkanes (Lx1-Lx5) on lymphocyte activation and cytokine production were examined. The ability of the PUFA to suppress mitogen-induced proliferation in response to PHA and S. aureus, and to inhibit cytokine production (TNFα and IFNγ), was assessed.

IFN-γ = IFN-γ production by human peripheral blood leukocytes; assay type: cell-based; details: Leukocyte, stimulus PHA, read-out: % Inhibition (compared to control) of IFN-γ
Description: as §1

Paw oedema = details: in vivo
P. falciparum = details: 20 μg/ml
Description: Parasites were treated with 20 μg/ml of compound. Results are means of triplicate assays of one experiment and are consistent with that found in three experiments.

[6] = ratio arachidonic acid:compound 1:1, 1 day
[7] = ratio arachidonic acid:compound 1:1, 2 days

## CCCCC/C=C\C/C=C\C/C=C\C/C=C\CCCCSCC(=O)O [Compound 18, (all-Z)-(eicosa-5,8,11,14-tetraenylthio) acetic acid]
[1]; ratio 1:1, 10% AIBN 60 h
  Percentage of arachidonic acid recovered in the presence of the compound: 87%
  Percentage of compound recovered (with arachidonic acid): 57%
[1]; ratio 1:1, no additive 70 h
  Percentage of arachidonic acid recovered in the presence of the compound: 98%
  Percentage of compound recovered (with arachidonic acid): 99%
[1]; ratio 1:1, no additive 7 day
  Percentage of arachidonic acid recovered in the presence of the compound: 68%
  Percentage of compound recovered (with arachidonic acid): 28%
[1]; ratio 1:1, with or without AIBN
  Autoxidation of arachidonic acid in the presence of the compound (in words): substantial degree of autoxidation
[2]
  Antioxidant effect on autoxidation of arachidonic acid (in words): not significantly inhibited
[2]; [6]
  Arachidonic acid (%) recovered following autoxidation in the presence of the compound: 68%
  Compound (%) recovered following autoxidation with arachidonic acid: 26%
[2]; [7]
  Arachidonic acid (%) recovered following autoxidation in the presence of the compound: 29%
  Compound (%) recovered following autoxidation with arachidonic acid: 7%
[2]; ratio arachidonic acid:compound 1:1, 3 days
  Arachidonic acid (%) recovered following autoxidation in the presence of the compound: 10%
[2]; ratio arachidonic acid:compound 1:1, 5 days
  Arachidonic acid (%) recovered following autoxidation in the presence of the compound: 7%
[2]; ratio arachidonic acid:compound 1:1, 7 days
  Arachidonic acid (%) recovered following autoxidation in the presence of the compound: 5%
[3]
  Chemical stability in the absence of arachidonic acid: decomposed after 7 days

## CCCCC/C=C\C/C=C\C/C=C\CCCCC[N+](=O)[O-] [Lx3, (z,z,z)-1-Nitro-6,9,12-octadecatriene]
15-LO
  Effect on 15-LO catalysed oxidation of AA: Nil
[4]
  Antimalarial activity (in words): very active
[4]; 3D7, isolate FC27
  EC50: 6 µg/mL (≈ 20.4 µM)
[4]; 3D7, isolate K+
  EC50: 3 µg/mL (≈ 10.2 µM)
[4]; isolate 3D7
  EC50: 2 µg/mL (≈ 6.82 µM)
  Antimalarial activity on P. falciparum 3D7 (FIG. 1, in words): greatest activity
[4]; chloroquine resistant isolate
  Activity against a chloroquine resistant isolate: active
[4]; compound 20 μg/ml, presence of human serum
  Reduction of antimalarial activity by human serum: did not affect the activity; also recorded: not inhibited by serum
Red blood cells
  Recovered cellular Lx3, unesterified Lx3: 2.1 ± 0.2 % of total added
[5]; GC-MS
  Form of the compound taken up by the cells: remained exclusively in the unesterified form
[5]; either cell population, GC-MS
  Elongation, chain-shortening or de-saturation products detected: No elongation, chain-shortening or de-saturation products
[5]; parasitised red blood cells, 200 μg Lx3, 37° C., 4 h
  Recovered cellular Lx3, unesterified Lx3: 12.9 ± 0.4 % of total added
P. berghei; intravenous 40 mg/kg
  Tolerability in mice: tolerated Lx3 quite well
P. berghei; mice, 4 h after infection
  Parasitaemia: 0.18 ± 0.05
P. berghei; mice, 22 h after infection
  Parasitaemia: 0.30 ± 0.10
P. berghei; mice, 28 h after infection
  Parasitaemia: 0.14 ± 0.05
P. berghei; mice, 46 h after infection
  Parasitaemia: 0.40 ± 0.14
P. berghei; mice, single intravenous dose 40 mg/kg, within 5 h after injection
  Change in circulating parasites (parasitaemia): marked drop in circulating parasites
TNF-α
  inhibition at 20 µM: 48.2%
IFN-γ
  inhibition at 20 µM: 37.6%
Paw oedema
  Effect in paw oedema: either inflammatory or anti-inflammatory
P. falciparum
  Morphology of parasites in treated cultures: degenerate mature rings, trophozoites and shizonts

— patent US6924309B2 (Children, Youth and Women's Health Service Incorporated, priority 1999, dated 2005)
